Test results published in patent EP3505527A1, “CYCLIC DINUCLEOTIDES FOR CYTOKINE INDUCTION” (Invivogen, priority 2017, dated 2019).
Like-named read-outs stand apart in the source and are kept apart here.

Experiments:
RAW-Difluo™ mLC3 Cells = assay: Autophagy induction (puncta formation) in RAW-Difluo mLC3 reporter cells; format: cell-based, murine; settings: 8 hours
Description: The ability of the CDNs of the present invention, to activate STING-dependent autophagy induction was measured using the murine autophagy reporter cell line obtained directly from InvivoGen.
RAW-Difluo™ mLC3 Cells are autophagy reporter cells derived from the murine RAW 264.7 macrophage cell line, a physiologically relevant cell line. They express an RFP::GFP::LC3 fusion protein, RFP-GFP-LC3, in which the N-terminus of murine LC3 is fused to two fluorescent reporter proteins: a RFP (acid-stable) and a GFP (acid-sensitive). In these cells, the RFP-GFP pair enables monitoring of autophagic flux in real time by detecting the appearance of green (GFP-LC3) and/or red (RFP-LC3) puncta by fluorescence microscopy.
Approximately 50,000 cells (500 µL) per well of 24-well plates were seeded 24 h before treatment. The next day, the cells were treated either with a solution containing a CDN at one of three different concentrations (1 µg/mL, 3 µg/mL or 10 µg/mL) or with Rapamycin at 25 µM, or were left untreated. The plates were incubated at 37 °C in a CO2 incubator for 8 hours. Fluorescence intensity and puncta formation was monitored at λexc = 480 nm and λem = 505 nm.

IRF pathway [1] = molecular target: T1, IRF pathway (Homo sapiens, UniProt Q86WV6); assay: ISG54 (IRF pathway) Lucia reporter assay in THP-1-Dual cells, Type I IFN induction; format: cell-based
Source text: The IRF pathway has been investigated by using the two following ISG reporter cell lines obtained directly from InvivoGen. They are described here and provided with their corresponding InvivoGen catalog code.

NF-κB pathway = NF-κB pathway (Homo sapiens, UniProt Q86WV6); assay: NF-κB SEAP reporter assay in THP1 Dual cells; format: cell-based
STING = assay: STING-dependent cytokine induction, overall activity in words (THP1 Dual in vitro and whole blood ex vivo, Tables 2 to 4); format: cell-based, human; settings: comment on Tables 2 and 3
Source text: (§1) . The ex vivo (whole blood assay) cytokine-induction activity of a representative set these cyclic dinucleotides is reported here with the same protocol described in Example 2.2.
as §1, §1

IRF pathway [2] = molecular target: T1, IRF pathway; assay: ISG54 reporter assay in THP-1-Dual KO-STING cells; format: cell-based; settings: THP1-Dual KO-STING cells (Figures 2A and 2B)
Source text: THP-1-Dual™-KO-STING (InvivoGen catalog code: thpd-kostg): These cells were generated from the human monocyte THP-1-Dual™, through stable homozygote knockout of the STING gene. Bialielic STING knockout was verified by functional assays, PCR and DNA sequencing.

[3] = system: Panc02 (murine pancreatic tumor cell line); assay: Murine orthotopic Panc02 pancreatic cancer model, i.p. monotherapy; format: in vivo, mouse; settings: for final mean tumor volume: Panc02, 1 mg/Kg i.p. once daily, 4 days a week for 3 weeks; for final mean tumor volume / incidence of metastasis: day 28; for tumor growth / incidence of metastasis: Panc02, 1 mg/Kg i.p.; for tumor growth: compared with control group
Source text: • Species evaluated: mouse • Tumor model: Panc02 (murine pancreatic tumor cell line) • Treatments tested: CL735 and CL742 (monotherapy) • Clinical parameters evaluated: tumor volume, tumor weight and incidence of metastasis • Administration routes evaluated: intraperitoneal (i.p.) injection
On Day 1, […] (C57BL/6; male) received an orthotopic injection of Panc02 tumor cells (1 x 106) in the pancreas. On Day 8, the mice were then divided into two groups of eight each (treated groups) and one group of five (control group). Each group received a different treatment, as outlined below: • Group 1 (control): saline (by i.p. injection) once daily, 4 days a week for 3 weeks; • Group 2: CL735 at 1 mg/Kg (by i.p. injection) once daily, 4 days a week for 3 weeks; • Group 3: CL742 at 1 mg/Kg (by i.p. injection) once daily, 4 days a week for 3 weeks
Left: Weight of individual Panc02 tumors at day 28 by treatment group. Right: Mean tumor weight at day 28, sd and sem for each group. • Figure 9. Left: Volume of individual Panc02 tumors at day 28 by treatment group. Right: Mean tumor volume at day 28, sd and sem for each group. • Figure 10. Incidence of metastasis in a murine model of Panc02 tumors. The mice were treated with saline (control), CL735 or CL742 monotherapies and metastases number was recorded at day 28. On the right, table indicated the mean of metastases number on animals that have survived by day 28, sd and sem for each group.

[4] = system: B16 (murine melanoma tumor cell line); assay: Murine subcutaneous B16 melanoma model, i.t. monotherapy; format: in vivo, mouse
Source text: • Species evaluated: mouse • Tumor model: B16 (murine melanoma tumor cell line) • Treatments tested: CL742 and CL747 (monotherapy) • Clinical parameters evaluated: tumor volume • Administration routes evaluated: intratumoral (i.t.) injection
On Day 1, 15 mice (C57BL/6; male) received a subcutaneous injection of B16 tumor cells (1 x 105) on the right flank. On Day 13, the mice were then divided into two groups of five each (treated groups) and one group of five (control group). Each group received a different treatment, as outlined below: • Group 1 (control): saline (i.t. injection) at days 13 16 and 20; • Group 2: CL742 at 1.25 mg/Kg (i.t. injection) at days 13 16 and 20; • Group 3: CL747 at 1.25 mg/Kg (i.t. injection) at days 13 16 and 20
The tumor volume and animal weight were monitored every 2 days and animals were euthanized at Day 28 (Figure 11).

T1 sequence (Q86WV6 whole entry): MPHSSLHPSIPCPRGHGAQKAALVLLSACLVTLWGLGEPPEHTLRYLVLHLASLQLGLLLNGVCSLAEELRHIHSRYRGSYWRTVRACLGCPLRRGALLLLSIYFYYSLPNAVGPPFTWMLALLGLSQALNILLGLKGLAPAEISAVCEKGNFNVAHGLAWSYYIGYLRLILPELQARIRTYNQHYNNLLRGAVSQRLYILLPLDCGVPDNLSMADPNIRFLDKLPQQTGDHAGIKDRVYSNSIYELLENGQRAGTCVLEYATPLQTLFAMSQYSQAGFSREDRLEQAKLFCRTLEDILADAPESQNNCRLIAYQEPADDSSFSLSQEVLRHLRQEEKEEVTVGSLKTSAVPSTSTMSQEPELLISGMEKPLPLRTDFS
Sequence of NF-κB pathway (Q86WV6 whole entry): as above

| Molecule | Autophagy level (RAW-Difluo™ mLC3 Cells; 1 µg/mL) | Autophagy level (RAW-Difluo™ mLC3 Cells; 3 µg/mL) | Autophagy level (RAW-Difluo™ mLC3 Cells; 10 µg/mL) | activity (ranking between compounds) (STING) | further results |
| --- | --- | --- | --- | --- | --- |
| O=c1[nH]cnc2c1ncn2[C@@H]1O[C@@H]2COP(=O)(O)O[C@H]3[C@@H](F)[C@H](n4cnc5c(=O)[nH]cnc54)O[C@@H]3COP(=O)(O)O[C@H]2[C@H]1F [CL626, reference compound] | ++ (50% of cells have puncta) | ++ (50% of cells have puncta) | ++ (50% of cells have puncta) | – | – |
| Nc1ncnc2c1ncn2[C@@H]1O[C@@H]2COP(=O)(O)O[C@@H]3[C@@H](F)[C@@H](COP(=O)(O)O[C@H]2[C@H]1F)O[C@H]3n1cnc2c(N)ncnc21 [CL710, (2',3')c-[xylo3'F3'dAMP-2'FdAMP]] | – | – | – | – | EC50 (IRF pathway [1]; THP1 Dual cells, ISG read-out): > 50 µM; EC50 (NF-κB pathway; NFκB read-out): > 50 µM |
| Nc1ncnc2c1ncn2[C@@H]1O[C@@H]2COP(=O)(O)O[C@@H]3[C@@H](F)[C@@H](COP(=O)(S)O[C@H]2[C@H]1F)O[C@H]3n1cnc2c(N)ncnc21 (some centres unmarked) [CL714, (2',3')c-[xylo3'F3'dAM(PS)-2'FdAMP]] | – | – | – | CL714 > CL766 | EC50 (IRF pathway [1]; THP1 Dual cells, ISG read-out): 4.84 µM; EC50 (NF-κB pathway; NFκB read-out): 14.6 µM |
| CC(C)(C)C(=O)OCn1cnc2c(ncn2[C@@H]2O[C@@H]3COP(=O)(O)O[C@H]4[C@@H](F)[C@H](n5cnc6c(=O)[nH]cnc65)O[C@@H]4COP(=O)(O)O[C@H]3[C@H]2F)c1=O [CL733, c-[2'FdI(POM)MP-2'FdIMP]] | +/- (10% of cells have puncta) | +/- (10% of cells have puncta) | + (25% of cells have puncta) | – | – |
| O=c1[nH]cnc2c1ncn2[C@@H]1O[C@@H]2COP(=O)(S)O[C@H]3[C@@H](F)[C@H](n4cnc5c(=O)[nH]cnc54)O[C@@H]3COP(=O)(S)O[C@H]2[C@H]1F (stereo partly drawn) [CL735, c-di[2'FdIMP(S)]] | ++ (50% of cells have puncta) | ++ (50% of cells have puncta) | ++ (50% of cells have puncta) | – | production of Type I interferons (IRF pathway [2]): did not induced production of Type I interferons; final mean tumor volume [3]: 150 +/- 69 mm3; tumor growth [3]: significant reduction in tumor growth; incidence of metastasis [3]: no metastases were found |
| O=c1[nH]cnc2c1ncn2[C@@H]1O[C@@H]2COP(=O)(O)O[C@@H]3[C@@H](F)[C@@H](COP(=O)(O)O[C@H]2[C@H]1F)O[C@H]3n1cnc2c(=O)[nH]cnc21 [CL742, (2',3')c-[3'F3'XylodIMP-2'FdIMP]] | +/- (10% of cells have puncta) | +/- (10% of cells have puncta) | + (25% of cells have puncta) | – | production of Type I interferons (IRF pathway [2]): did not induced production of Type I interferons; final mean tumor volume [3]: 47 +/- 29 mm3; tumor growth [3]: significant reduction in tumor growth; incidence of metastasis [3]: no metastases were found; mean tumor volume ([4]; B16, 1.25 mg/Kg i.t. at days 13 16 and 20, day 20): 779 +/- 816 mm3; tumor growth ([4]; B16, 1.25 mg/Kg i.t., compared with control group): significant reduction in tumor growth |
| CC(C)(C)C(=O)OCSP1(=O)OC[C@H]2O[C@@H](n3cnc4c(N)ncnc43)[C@H](F)[C@@H]2OP(=O)(SCOC(=O)C(C)(C)C)OC[C@H]2O[C@@H](n3cnc4c(=O)[nH]c(N)nc43)[C@H](O1)[C@H]2F (some centres unmarked) [CL751, (2',3')c-[3'F3'XylodGM(PS-POM)-2'FdAM(PS-POM)]] | – | – | – | – | EC50 (IRF pathway [1]; read-out: EC50 THP1 Dual ISG): 0.93 µM; EC50 (NF-κB pathway; read-out: EC50 THP1 Dual NFκB): 2.51 µM |
| CC(C)(C)C(=O)OCSP1(=O)OC[C@H]2O[C@@H](n3cnc4c(N)ncnc43)[C@H](F)[C@@H]2OP(=O)(SCOC(=O)C(C)(C)C)OC[C@H]2O[C@@H](n3cnc4c(N)ncnc43)[C@H](O1)[C@H]2F (some centres unmarked) [CL760, (2',3')c-[xylo3'F3'dAM(PS-POM)-2'FdAM(PS-POM)]] | – | – | – | – | EC50 (IRF pathway [1]; read-out: EC50 THP1 Dual ISG): 0.33 µM; EC50 (NF-κB pathway; read-out: EC50 THP1 Dual NFκB): 1.76 µM |
| Nc1nc(Cl)nc2c1ncn2[C@H]1C[C@@H]2OP(=O)(O)OC[C@H]3O[C@@H](n4cnc5c(=O)[nH]cnc54)[C@H](F)[C@@H]3OP(=O)(O)OC[C@H]2O1 [CL761, (3'3')c-(2CIdAMP-2'FdIMP)] | – | – | – | CL761 < CL760 | – |
| CC(C)(C)C(=O)OCn1cnc2c(ncn2[C@@H]2O[C@@H]3COP(=O)(O)O[C@H]4C[C@H](n5cnc6c(N)nc(Cl)nc65)O[C@@H]4COP(=O)(O)O[C@H]3[C@H]2F)c1=O [CL762, (3'3')c-[2CIdAMP-2'FdI(POM)MP]] | – | – | – | CL762 < CL760 | – |
| Nc1ncnc2c1ncn2[C@@H]1O[C@@H]2COP(=O)(S)O[C@@H]3[C@@H](F)[C@@H](COP(=O)(S)O[C@H]2[C@H]1F)O[C@H]3n1cnc2c(N)ncnc21 (some centres unmarked) [CL766, (2',3')c-[xylo 3'F3'dAM(PS)-2'FdAM(PS)]] | – | – | – | – | EC50 (IRF pathway [1]; THP1 Dual cells, ISG read-out): > 50 µM; EC50 (NF-κB pathway; NFκB read-out): > 50 µM |
| Nc1ncnc2c1ncn2[C@@H]1O[C@@H]2COP(=O)(O)O[C@@H]3[C@@H](F)[C@@H](COP(=O)(S)O[C@H]2[C@H]1F)O[C@H]3n1cnc2c(=O)[nH]cnc21 (some centres unmarked) [CL781, (2',3')c-[3'F3'XylodIMP-2'FdAM(PS)]] | – | – | – | CL781 >> CL764 | – |
| CC(C)(C)C(=O)OCSP1(=O)OC[C@H]2O[C@@H](n3cnc4c(=O)[nH]cnc43)[C@H](OP(=O)(O)OC[C@H]3O[C@@H](n4cnc5c(N)ncnc54)[C@H](F)[C@@H]3O1)[C@H]2F (some centres unmarked) [CL784, (2',3')c-[3'F3'XylodIMP-2'FdAM(PS-POM)]] | – | – | – | CL784 > CL781 | – |
| CO[C@H]1C[C@@H]2CC[C@@H](C)[C@@](O)(O2)C(=O)C(=O)N2CCCC[C@H]2C(=O)O[C@H]([C@H](C)C[C@@H]2CC[C@@H](O)[C@H](OC)C2)CC(=O)[C@H](C)/C=C(\C)[C@@H](O)[C@@H](OC)C(=O)[C@H](C)C[C@H](C)/C=C/C=C/C=C/1C [Rapamycin, reference compound] | – | – | – | – | Autophagy level (RAW-Difluo™ mLC3 Cells; 25 µM): ++++ (90% of cells have puncta) |
| O=c1[nH]cnc2c1ncn2[C@@H]1O[C@@H]2COP(=O)(O)O[C@H]3[C@@H](O)[C@H](n4cnc5c(=O)[nH]cnc54)O[C@@H]3COP(=O)(O)O[C@H]2[C@H]1O [cdiIMP, reference compound] | + (25% of cells have puncta) | ++ (50% of cells have puncta) | +++ (75% of cells have puncta) | – | – |
| (2',3')c-[3'F3'XylodIM(PS)-2'FdI(POM)MP] [CL746] | ++ (50% of cells have puncta) | ++ (50% of cells have puncta) | ++ (50% of cells have puncta) | – | – |
